Among the data in the supplement of paper PMC11919725 are cytotoxicity, confluency and metabolic activity values, retold here.

Assay [1] has as its system Jurkat. In words: cytotoxicity relative to DMSO, 18 h (ratio); higher = less cell death (drugs called cytotoxic fall below 1). A digest of the protocol:
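Fluorescence was imaged at ×10, five images per well, every hour for 3 h, in 96-well plates holding 100 µl of treated cell suspension and IncuCyte Cytotox Dye at 250 nM final. Before plating, Jurkat cells or primary CD4+/CD8+ T cells (naive, or activated 48 h with CD3/CD28 Dynabeads) had been treated for 18 h with compound across 1 nM–10 µM in log10 steps at 37 °C, 5% CO2. Cytotoxicity values were based on these IncuCyte signals after confluency correction and normalisation to the mean of control wells.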

Assay [2] concerns Jurkat. In words: confluency relative to DMSO, 18 h (ratio); higher = more viable. The method, boiled down:
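Cells (Jurkat, or primary CD4+/CD8+ T cells either naive or stimulated 48 h with CD3/CD28 Dynabeads) were incubated with compound for 18 h at 37 °C, 5% CO2, across 1 nM–10 µM in log10 steps. Each 100 µl suspension was then placed in a 96-well plate with IncuCyte Cytotox Dye and alamarBlue and imaged by phase contrast at ×10, five images per well, hourly over 3 h. Confluency values come from the Basic Analyzer and are relative to the mean of the control wells.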

Assay [3] has as its system Jurkat. The experiment in a line: metabolic activity relative to DMSO, 18 h (ratio); higher = more viable. A digest of the protocol: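 Compound was added at 1 nM–10 µM (log10 steps) for 18 h at 37 °C, 5% CO2 to Jurkat cells or to primary CD4+/CD8+ T cells that were naive or had been activated 48 h with CD3/CD28 Dynabeads. After alamarBlue was added to 10% v/v final, fluorescence (excitation 544 nm, emission 584 nm) was measured 3.5 h later. Values for metabolic activity are normalised to the mean of vehicle controls.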

The structures appear in SMILES notation.

In the case of `O=C1NC(=O)C(=Cc2ccc3nccc(-c4ccncc4)c3c2)S1`, the cytotoxicity was determined as 0.944 with Jurkat [1] (1 nM); 0.984 in the assay on Jurkat [1] (10 nM); 0.956 in the assay on Jurkat [1] (100 nM); 0.762 with Jurkat [1] (1000 nM); 0.804 with Jurkat [1] (10000 nM). Further, the confluency with Jurkat [2] (1 nM) was 0.989; with Jurkat [2] (10 nM), 0.988; with Jurkat [2] (100 nM), 0.968; in the assay on Jurkat [2] (1000 nM), 0.812; in the assay on Jurkat [2] (10000 nM), 1.01. The metabolic activity in the assay on Jurkat [3] (1 nM) was 0.992; in the assay on Jurkat [3] (10 nM), 0.956; with Jurkat [3] (100 nM), 0.964; with Jurkat [3] (1000 nM), 0.723; in the assay on Jurkat [3] (10000 nM), 0.426.
In the case of `O=C(O)c1ccc(CN2CCC(CNC3CC3c3ccccc3)CC2)cc1` (stereo not given), the cytotoxicity with Jurkat [1] (1 nM) amounted to 1; in the assay with Jurkat [1] (10 nM) it was 1.04; with Jurkat [1] (100 nM), 1.1; with Jurkat [1] (1000 nM), 1.04; with Jurkat [1] (10000 nM), 1.03. In addition, the confluency came out at 0.954 in the assay with Jurkat [2] (1 nM); 0.956 with Jurkat [2] (10 nM); 0.996 in the assay on Jurkat [2] (100 nM); 0.987 in the assay with Jurkat [2] (1000 nM); 0.993 in the assay on Jurkat [2] (10000 nM). Besides, the metabolic activity with Jurkat [3] (1 nM) was found to be 1.09; in the assay with Jurkat [3] (10 nM), 1.06; in the assay on Jurkat [3] (100 nM) it was 1.09; in the assay on Jurkat [3] (1000 nM), 1.08; in the assay with Jurkat [3] (10000 nM), 1.02.
Consider `CC(C)CC(=O)Nc1n[nH]c2c1CN(C(=O)C1CCN(C)CC1)C2(C)C`, for which the cytotoxicity in the assay on Jurkat [1] (1 nM) amounted to 0.914; with Jurkat [1] (10 nM), 0.908; in the assay on Jurkat [1] (100 nM), 1.05; in the assay with Jurkat [1] (1000 nM) it was 1.07; with Jurkat [1] (10000 nM), 0.406. Further, the confluency amounted to 0.887 in the assay on Jurkat [2] (1 nM); 0.876 with Jurkat [2] (10 nM); 0.978 with Jurkat [2] (100 nM); 0.97 in the assay with Jurkat [2] (1000 nM); 0.591 in the assay on Jurkat [2] (10000 nM). In addition, the metabolic activity was found to be 1.17 in the assay on Jurkat [3] (1 nM); 1.2 with Jurkat [3] (10 nM); 1.26 in the assay on Jurkat [3] (100 nM); 1.24 in the assay on Jurkat [3] (1000 nM); 0.438 with Jurkat [3] (10000 nM).
Consider `Cc1c(Cn2c(C)nc3c(C(=O)O)cc(N4CCOCC4)cc32)cccc1C(F)(F)F`, for which the cytotoxicity stood at 0.881 with Jurkat [1] (1 nM); 0.947 in the assay with Jurkat [1] (10 nM); 1.05 with Jurkat [1] (100 nM); 1.14 in the assay on Jurkat [1] (1000 nM); 1.01 in the assay on Jurkat [1] (10000 nM). The confluency in the assay on Jurkat [2] (1 nM) came out at 0.923; with Jurkat [2] (10 nM), 0.973; in the assay with Jurkat [2] (100 nM), 1.05; with Jurkat [2] (1000 nM), 1.03; in the assay on Jurkat [2] (10000 nM), 0.998. The metabolic activity is 0.862 with Jurkat [3] (1 nM); 0.891 in the assay on Jurkat [3] (10 nM); 1 in the assay with Jurkat [3] (100 nM); 1.25 in the assay on Jurkat [3] (1000 nM); 1.08 in the assay on Jurkat [3] (10000 nM).
Take `COc1ccc(-c2cc3c(C)nc(N)nc3n(C3CCC(OCCO)CC3)c2=O)cn1` (stereo not given): the cytotoxicity worked out at 1.02 with Jurkat [1] (1 nM); 0.94 in the assay on Jurkat [1] (10 nM); 0.882 in the assay with Jurkat [1] (100 nM); 0.666 in the assay with Jurkat [1] (1000 nM); 0.721 with Jurkat [1] (10000 nM). The confluency was 1.01 with Jurkat [2] (1 nM); 0.951 in the assay with Jurkat [2] (10 nM); 0.927 in the assay with Jurkat [2] (100 nM); 0.741 in the assay on Jurkat [2] (1000 nM); 0.9 with Jurkat [2] (10000 nM). In addition, the metabolic activity came out at 1.08 with Jurkat [3] (1 nM); 1.01 in the assay on Jurkat [3] (10 nM); 0.734 with Jurkat [3] (100 nM); 0.562 in the assay on Jurkat [3] (1000 nM); 0.402 in the assay with Jurkat [3] (10000 nM).
With `COc1ccc(Cn2ccc3ccc(C(=O)NO)cc32)cc1`, the cytotoxicity with Jurkat [1] (1 nM) worked out at 0.955; with Jurkat [1] (10 nM), 0.926; in the assay on Jurkat [1] (100 nM), 0.954; in the assay with Jurkat [1] (1000 nM), 1.04; with Jurkat [1] (10000 nM), 0.938. Further, the confluency with Jurkat [2] (1 nM) came out at 1.01; with Jurkat [2] (10 nM), 1.01; in the assay on Jurkat [2] (100 nM), 1; in the assay on Jurkat [2] (1000 nM), 1.01; with Jurkat [2] (10000 nM) it was 1. Further, the metabolic activity turned out to be 1.03 in the assay on Jurkat [3] (1 nM); 0.992 in the assay with Jurkat [3] (10 nM); 1.02 in the assay on Jurkat [3] (100 nM); 1.01 in the assay on Jurkat [3] (1000 nM); 1.02 with Jurkat [3] (10000 nM).
